Data from US20060035317A1, “Effect of treatment with 4,5-dihydroxy-2-cyclopenten-1-one (dhcp) on gene expression and quorum-sensing in bacteria” (priority 2002, published 2006).

Key:
[1] = system: E. coli wild-type strain JM83 (gene expression); assay: Primer extension analysis of mRNA levels in DHCP-treated vs control cells; format: cell-based; details: DHCP 250 μM, 8 h
Description: FIG. 1 are gels showing the effect of DHCP on the levels of mRNAs. Total RNA was extracted by the hot phenol method as described in the Materials and Methods section of Example 1, and primer extension analysis was carried out with oligonucleotides corresponding to osmY, dps, rpoS, katG, cysK, tehA, zipA, and ompF. Lanes 1 and 2 in each case represent mRNAs isolated from control (untreated) and DHCP treated cells, respectively.
E. coli wild-type strain JM83 [F^− araΔ(lac-proAB) rpsL(str^r)] (Yanisch-Perron et al., 1985) was grown in Luria broth (LB). V. harveyi strains BB152 and BB170 were a gift from Dr. Bonnie Bassler (Princeton University). These strains were grown in AB medium as described previously (Surette et al., 1999).
E. coli cells grown overnight in LB medium were diluted into fresh LB medium. After the growth reached a Klett unit of 50, DHCP was added (250 μM) and growth was further monitored. After growth reached a Klett unit of 90-100, it was diluted 10-fold into a medium containing the same concentration of DHCP as described previously (Phadtare et al., 2001). The cells were harvested after a total of 8 h of incubation with DHCP. […] The total RNA was extracted by the hot phenol method described previously (Sarmientos et al., 1983). It was further purified by RNeasy Minikit (Qiagen) and was then treated with DNase I followed by phenol-chloroform treatment and ethanol precipitation. It was quantified by measuring absorbance at 260 nm. The purity of RNA was confirmed by agarose gel electrophoresis.
The primers used for detection of the respective mRNAs were: Primer 750077, 5′-[…]-3′ (SEQ ID NO:1), that corresponds to the sequence from the 15th to the 8th codon of osmY (Yim et al., 1992); primer 750078, 5′-[…]-3′ (SEQ ID NO:2), that corresponds to the sequence from the 16th to the 9th codon of dps (Altuvia et al., 1994); Primer 979747, 5′-[…]-3′ (SEQ ID NO:3), that corresponds to the region from the 6th codon of rpoS (Takayanagi et al., 1994); primer 956660, 5′-AGT […]-3′ (SEQ ID NO:4), that corresponds to the region from 13th to the 6th codon of katG (Triggs-Raine et al., 1998); primer 3969805, 5′-[…]-3′ (SEQ ID NO:5), that corresponds to the region from 20th to the 13th codon of cysK (Byrne et al., 1988); primer 3969806, 5′-[…]-3′ (SEQ ID NO:6), that corresponds to the region from 13th to the 6th codoh of tehA (Walter et al., 1991); primer 3969807, 5′[…]-3′ (SEQ ID NO:7), that corresponds to the region from 10th to the 3rd codon of zipA (Hale et al., 1997); and primer 7018 5′-[…]-3′ (SEQ ID NO:8), that includes the region encompassing from the first codon of ompF (accession numbers, J01655, M10311 and M10312). The primers were labeled with [γ-^32P] ATP (Du-Pont-New England Nuclear] by using T4 polynucleotide kinase (Gibco BRL). Primer extension was carried out with 5 μg of RNA at 42° C. for 1 h in a final reaction volume of 10 μl, with 50 mM Tris-HCl (pH 8.5), 8 mM MgCl2, 30 mM KCl, 1 mM dithiothreitol, 0.4 pmol of ^32P-labeled primer, 0.5 mM each of the dNTPs, 10 U RNase inhibitor (Boehringer Mannheim) and 6.25 U of reverse transcriptase (Boehringer Mannheim). The products were analyzed on a 6% polyacrylamide gel under denaturing conditions. Quantitation of primer extension products was carried out by direct radioactive measurements.

[2] = system: AI-2 activity, V. harveyi reporter strain BB170; assay: AI-2 assay (luminescence of reporter strain); format: cell-based
Description: FIGS. 2A and 2B are graphs showing DHCP inhibits AI-2 activity. The AI-2 activity assay was carried out as described in Materials and Methods section of Example 1. The luminescence seen with V. harveyi BB152 was assumed as 100% and the other activities were expressed as relative %. In FIG. 2A, the lanes are as follows: Sterile AB medium, lane 1; V. harveyi BB152 culture fluid, lane 2; DHCP (250 μM), lane 3; DHCP (250 μM) plus V. harveyi BB152 culture fluid, lane 4. In FIG. 2B, DHCP was added to the reaction mixtures after maximum luminescence was generated by AI-2, at a concentration of 250 μM (closed circles) and 100 μM (open squares). The corresponding control activity of AI-2 without DHCP addition is also shown (open triangles). The light production was monitored at various time points with a liquid scintillation counter.
The AI-2 assays using V. harveyi reporter strain (BB170) were carried out as described by Surette and Bassler (Surette et al., 1999). Cell-free culture fluid from V. harveyi BB152 strain was used as a positive control. Sterile AB medium was used a negative control. Briefly, the V. harveyi BB170 strain was grown overnight with aeration at 30° C. in the AB medium and the cells were then diluted 1:5000 in the fresh medium. The diluted culture (90 μl) was added in the assay mixture containing 10 μl of AB medium or cell-free culture fluid of V. harveyi BB152/DHCP (100-250 μM). To check the effect of DHCP on the light production by AI-2, it was added to the reaction mixture after the maximum luminescence was achieved. The light production was monitored with a liquid scintillation counter.
In the present study, the AI-2 assay designed by Suretter and Bassler (Surette et al., 1999) was used. The V. harveyi BB170 reporter strain has the quorum-sensing phenotype, sensor 1^−, sensor 2^+. It induces lux expression through the signaling system 2 detector. Addition of 10% cell-free culture fluid prepared from V. harveyi BB152 strain (containing the system 2 autoinducer) stimulates luminescence expression in the reporter strain. […] The laboratory of the present inventors examined if DHCP inhibits the activity of AI-2. […] Sterile AB medium was used as a negative control (lane 1). […] It has been reported that the AI-2 gave maximum luminescence at approximately 10 μM concentration (Schauder et al., 2001). It should be noted that the DHCP concentration used in the present assay was in excess of the AI-2 concentration. It was also tested if DHCP can inhibit AI-2 activity when it is added after maximum luminescence is generated by AI-2. […] When it was added at the concentration of 100 μM (open squares), the AI-2 activity was reduced to zero after 40 min. The corresponding control activity without DHCP addition (open triangles) was completely stable.

SMILES: O=C1C=CC(O)C1O (stereo not drawn) [DHCP, 4,5-dihydroxy-2-cyclopenten-1-one]
- Primer extension: ratio of mRNA level DHCP-treated to control ([1]; gene cysK): 18.00
- Primer extension: ratio of mRNA level DHCP-treated to control ([1]; gene dps): 12.00
- Primer extension: ratio of mRNA level DHCP-treated to control ([1]; gene katG): 9.00
- Primer extension: ratio of mRNA level DHCP-treated to control ([1]; gene ompF): 0.06
- Primer extension: ratio of mRNA level DHCP-treated to control ([1]; gene osmY): 15.00
- Primer extension: ratio of mRNA level DHCP-treated to control ([1]; gene rpoS): 4.00
- Primer extension: ratio of mRNA level DHCP-treated to control ([1]; gene tehA): 5.00
- Primer extension: ratio of mRNA level DHCP-treated to control ([1]; gene zipA): 5.00
- Time until AI-2 activity was reduced to zero ([2]; DHCP 100 μM added after maximum luminescence generated by AI-2, FIG. 2B): 40 min
- Time until AI-2 activity was reduced to zero ([2]; DHCP 250 μM added after maximum luminescence generated by AI-2, FIG. 2B): ≤ 8 min
- Inhibition of AI-2 activity ([2]; DHCP 250 μM added immediately before AI-2 containing cell-free extract of V. harveyi BB152, FIG. 2A lane 4): completely inhibited
- AI-2 activity (luminescence) of DHCP itself ([2]; DHCP 250 μM alone, FIG. 2A lane 3): did not show AI-2 activity
